Test results taken from US4255435A, “Triazole compounds” (priority 1980, dated 1981).
Converted amounts (≈) assume the structure as drawn.

Legend:
Assay type in all cases: in vivo
[1] = tested on: eggs of the cabbage root fly (Erioischia brassicae); assay: Egg hatch of cabbage root fly eggs in test solution; details: Table 4; eggs stored six days, egg hatch counted, two replicates; 8640 min
From the text: This example illustrates the activity of compounds of the invention against the eggs of the cabbage root fly (Erioischia brassicae).
The eggs were then stored for six days and the egg hatch then counted.

aphid Megoura viciae = assay: Aphids on sprayed broad bean plants; details: Table 6; sprayed infested broad bean plants, 24 hours
Procedure: Broad bean plants 3 to 5 cm. high were infested with aphids and then sprayed with an aqueous dispersion containing varying concentrations of test compound. Each plant was kept under a lamp glass for 24 hours and then examined. In this way an LD50 value for the compounds was calculated.

[2] = tested on: larvae of the diamond back moth (Plutella maculipennis); assay: Mortality of larvae of the diamond back moth on treated cabbage leaf; details: for ACTIVITY LD50: Table 1, cabbage leaf dipped in test solution, mortality after 24 + 24 hours, two replicates; for ACTIVITY LD50 / Plutella maculipennis LD50 values: 2880 min; for Plutella maculipennis LD50 values: Table 2, comparative 1,2,4-triazoles, method of Example 9; for LC50: Plutella, 48 h, read-out: Plutella maculipennis LD50 values
Procedure: Ten larvae were placed in a tube together with a square inch of cabbage leaf which had been dipped in the test solution and allowed to dry. After twenty-four hours untreated cabbage was added for food and after a further twenty-four hours an assessment was made of the mortality of the larvae.
Two replicates were carried out for each test compound and test solutions of varying concentrations employed so that an LD50 value could be calculated.

[3] = tested on: larvae of the codling moth (Cydia pomonella); assay: Codling moth larvae on sprayed apple (number of strikes); details: Table 5, after five days, two replicates, 7200 min
From the text: This example illustrates the activity of compounds of the invention against the larvae of the codling moth (Cydia pomonella).
An apple sprayed with test solution was allowed to dry and a perspex ring of 1 inch diameter was attached to the apple. Ten larvae were then placed on the apple surface and contained within the ring by means of a muslin covering. After five days an assessment of mortality was made by counting the number of strikes (i.e. the number of entry holes) made by the larvae.

[4] = tested on: nematode Meloidogyne incognita incognita; assay: Root knots of tomato plants in nematode-infested treated soil; details: 100 parts per million per unit volume of soil, 30° C., ten days; untreated controls average more than 20 knots
Procedure: This example illustrates the activity of compounds of the invention against the nematode Meloidogyne incognita incognita.
Small tomato plants were transferred to containers with infested soil. Sufficient test compound to give a concentration of 100 parts per million per unit volume of soil was poured onto the soil and the containers suspended in warm water at 30° C.
After ten days the plants were knocked out of the containers and the roots washed clean, the number of knots being noted. The latter was an indication of activity and a low score indicated high activity.

1(2)-N,N-dimethylcarbamoyl-3-isopropyl-5-(2-bromoallylthio)-1,2,4-triazole [methyl methyl isopropyl 2-bromoallyl]
ACTIVITY LD50 [1]: 0.9 p.p.m.

1(2)-N,N-dimethylcarbamoyl-3-isopropyl-5-(2-chloroallylthio)-1,2,4-triazole [methyl methyl isopropyl 2-chloroallyl]
ACTIVITY LD50 [1]: 0.27 p.p.m.
ACTIVITY LD50 (aphid Megoura viciae): 1.2 p.p.m.

1(2)-N,N-dimethylcarbamoyl-3-isopropyl-5-ethylthio-1,2,4-triazole [methyl methyl isopropyl ethyl]
ACTIVITY LD50 [2]: 140 p.p.m.
ACTIVITY LD50 [3]: < 10 p.p.m.

1(2)-N,N-dimethylcarbamoyl-3-isopropyl-5-propylthio-1,2,4-triazole [methyl methyl isopropyl propyl]
ACTIVITY LD50 [2]: 220 p.p.m.
ACTIVITY LD50 [1]: 0.57 p.p.m.
ACTIVITY LD50 [3]: < 10 p.p.m.
ACTIVITY LD50 (aphid Megoura viciae): 1.6 p.p.m.

1(2)-N,N-dimethylcarbamoyl-3-isopropyl-5-vinylthio-1,2,4-triazole [methyl methyl isopropyl vinyl]
ACTIVITY LD50 [2]: < 25 p.p.m.

1(2)-N,N-dimethylcarbamoyl-3-s-butyl-5-(2-chloroallylthio)-1,2,4-triazole [methyl methyl s-butyl 2-chloroallyl]
ACTIVITY LD50 [1]: 0.8 p.p.m.

1(2)-N,N-dimethylcarbamoyl-3-s-butyl-5-ethylthio-1,2,4-triazole [methyl methyl s-butyl ethyl]
ACTIVITY LD50 [2]: 220 p.p.m.
ACTIVITY LD50 [3]: 18 p.p.m.
ACTIVITY LD50 (aphid Megoura viciae): 0.66 p.p.m.

1(2)-N,N-dimethylcarbamoyl-3-s-butyl-5-methylthio-1,2,4-triazole [methyl methyl s-butyl methyl]
ACTIVITY LD50 [2]: 140 p.p.m.
ACTIVITY LD50 [3]: 14 p.p.m.
ACTIVITY LD50 (aphid Megoura viciae): 0.32 p.p.m.

1(2)-N,N-dimethylcarbamoyl-3-s-butyl-5-prop-2-ynylthio-1,2,4-triazole [methyl methyl s-butyl prop-2-ynyl]
ACTIVITY LD50 [2]: 270 p.p.m.

1(2)-N,N-dimethylcarbamoyl-3-s-butyl-5-propylthio-1,2,4-triazole [methyl methyl s-butyl propyl]
ACTIVITY LD50 [2]: 320 p.p.m.
ACTIVITY LD50 [3]: 10 p.p.m.
ACTIVITY LD50 (aphid Megoura viciae): 0.86 p.p.m.

1(2)-N,N-dimethylcarbamoyl-3-s-butyl-5-vinylthio-1,2,4-triazole [methyl methyl s-butyl vinyl]
ACTIVITY LD50 [2]: 160 p.p.m.

1(2)-N,N-dimethylcarbamoyl-3-t-butyl-5-vinylthio-1,2,4-triazole [methyl methyl t-butyl vinyl]
ACTIVITY LD50 [2]: 160 p.p.m.
number of knots on roots [4]: ≤ 2 knots
ACTIVITY LD50 (aphid Megoura viciae): 0.61 p.p.m.

1(2)-N-ethyl-N-methylcarbamoyl-3-t-butyl-5-prop-2-ynylthio-1,2,4-triazole [ethyl methyl t-butyl prop-2-ynyl]
ACTIVITY LD50 [2]: 68 p.p.m.

1(2)-N-methyl-N-n-butylcarbamoyl-3-methylthio-5-methyl-1,2,4-triazole
Plutella maculipennis LD50 values [2]: > 5000 p.p.m.

1(2)-diallylcarbamoyl-3-ethylthio-5-methyl-1,2,4-triazole
Plutella maculipennis LD50 values [2]: > 5000 p.p.m.

1(2)-diethylcarbamoyl-3-methylthio-5-methyl-1,2,4-triazole
Plutella maculipennis LD50 values [2]: > 5000 p.p.m.

1(2)-dimethlcarbamoyl-3-ethylthio-5-methyl-1,2,4-triazole
Plutella maculipennis LD50 values [2]: 1600 p.p.m.

1(2)-pyrrolidinocarbonyl-3-methylthio-5-methyl-1,2,4-triazole
Plutella maculipennis LD50 values [2]: > 5000 p.p.m.

2(2)-dimethylthiocarbamoyl-3-methylthio-5-methyl-1,2,4-triazole
Plutella maculipennis LD50 values [2]: > 5000 p.p.m.

CC1CCN(C(=O)n2cncn2)CC1 [1-(4-methylpiperidinocarbonyl)-1,2,4-triazole]
LC50 [2]: > 5000 µg/mL

CCSc1ncn(C(=O)N(CC#N)CC#N)n1 [1-di(cyanomethyl)carbamoyl-3-ethylthio-1,2,4-triazole]
LC50 [2]: > 5000 µg/mL

C=CCN(CC=C)C(=O)n1cnc(SCCN(CC)CC)n1 [1-diallylcarbamoyl-3-(2-diethylaminoethylthio)-1,2,4-triazole]
LC50 [2]: > 5000 µg/mL

C=CCN(CC=C)C(=O)n1cnc(SCC(=O)OC)n1 [1-diallylcarbamoyl-3-methoxycarbonylmethylthio-1,2,4-triazole]
LC50 [2]: > 5000 µg/mL

CN(C)C(=O)n1cncn1 [1-dimethylcarbamoyl-1,2,4-triazole]
LC50 [2]: 1250 µg/mL (≈ 8.92 mM)

Cc1nc(C)n(C(=O)N(C)C)n1 [1-dimethylcarbamoyl-3,5-dimethyl-1,2,4-triazole]
LC50 [2]: > 5000 µg/mL

CN(C)C(=O)n1cnc(SSc2ncn(C(=O)N(C)C)n2)n1 [1-dimethylcarbamoyl-3-(1-dimethylcarbamoyl-1,2,4-triazole-3-yldithio)-1,2,4,-triazole]
LC50 [2]: > 5000 µg/mL

CN(C)C(=O)n1cnc(Sc2ccc([N+](=O)[O-])cc2[N+](=O)[O-])n1 [1-dimethylcarbamoyl-3-(2,4-dinitrophenylthio)-1,2,4-triazole]
LC50 [2]: > 5000 µg/mL

Cc1nc(SCc2ccccc2)nn1C(=O)N(C)C [1-dimethylcarbamoyl-3-benzylthio-5-methyl-1,2,4-triazole]
LC50 [2]: > 5000 µg/mL

CN(C)C(=O)n1cnc(Br)n1 [1-dimethylcarbamoyl-3-bromo-1,2,4-triazole]
LC50 [2]: > 5000 µg/mL

CN(C)C(=O)n1cnc(Cl)n1 [1-dimethylcarbamoyl-3-chloro-1,2,4-triazole]
LC50 [2]: > 5000 µg/mL

CN(C)C(=O)n1cnc(SC2CCCCC2)n1 [1-dimethylcarbamoyl-3-cyclohexylthio-1,2,4-triazole]
LC50 [2]: > 5000 µg/mL

CCCCCCCCCCCCSc1ncn(C(=O)N(C)C)n1 [1-dimethylcarbamoyl-3-dodecylthio-1,2,4-triazole]
LC50 [2]: > 5000 µg/mL

CCCCCCCCCCCCSc1nc(C)n(C(=O)N(C)C)n1 [1-dimethylcarbamoyl-3-dodecylthio-5-methyl-1,2,4-triazole]
LC50 [2]: > 5000 µg/mL

CCOC(=O)CSc1nc(C)n(C(=O)N(C)C)n1 [1-dimethylcarbamoyl-3-ethoxycarbonylmethylthio-5-methyl-1,2,4-triazole]
LC50 [2]: > 5000 µg/mL

CCc1nc(SC)n(C(=O)N(C)C)n1 [1-dimethylcarbamoyl-3-ethyl-5-methylthio-1,2,4-triazole]
LC50 [2]: 1900 µg/mL (≈ 8.87 mM)

Cc1ncn(C(=O)N(C)C)n1 [1-dimethylcarbamoyl-3-methyl-1,2,4-triazole]
LC50 [2]: > 5000 µg/mL

CSc1nc(C)nn1C(=O)N(C)C [1-dimethylcarbamoyl-3-methyl-5-methylthio-1,2,4-triazole]
LC50 [2]: 2200 µg/mL (≈ 11 mM)

CSc1ncn(C(=O)N(C)C)n1 [1-dimethylcarbamoyl-3-methylthio-1,2,4-triazole]
LC50 [2]: 2300 µg/mL (≈ 12.3 mM)

CCCCCCSc1ncn(C(=O)N(C)C)n1 [1-dimethylcarbamoyl-3-n-hexylthio-1,2,4-triazole]
LC50 [2]: > 5000 µg/mL

Cc1nc(Sc2ccc([N+](=O)[O-])cc2)nn1C(=O)N(C)C [1-dimethylcarbamoyl-3-p-nitrophenylthio-5-methyl-1,2,4-triazole]
LC50 [2]: > 5000 µg/mL

CSc1nc(-c2ccccc2)nn1C(=O)N(C)C [1-dimethylcarbamoyl-3-phenyl-5-methylthio-1,2,4-triazole]
LC50 [2]: > 5000 µg/mL

CCCCCCCCCCCc1nc(SC)n(C(=O)N(C)C)n1 [1-dimethylcarbamoyl-3-undecyl-5-methylthio-1,2,4-triazole]
LC50 [2]: > 5000 µg/mL

C=C(Br)CSc1nc(C(C)(C)C)nn1C(=O)N(C)C [methyl methyl t-butyl 2-bromoallyl, 1(2)-N,N-dimethylcarbamoyl-3-t-butyl-5-(2-bromoallylthio)-1,2,4-triazole]
ACTIVITY LD50 [1]: 0.57 p.p.m.
ACTIVITY LD50 (aphid Megoura viciae): 0.66 p.p.m.

C=C(Cl)CSc1nc(C(C)(C)C)nn1C(=O)N(C)C [methyl methyl t-butyl 2-chloroallyl, 1(2)-N,N-dimethylcarbamoyl-3-t-butyl-5-(2-chloroallylthio)-1,2,4-triazole]
ACTIVITY LD50 [1]: 0.22 p.p.m.
ACTIVITY LD50 (aphid Megoura viciae): 1.6 p.p.m.
